Measured values: patent US7622481B2, “Antibacterial compounds” (priority 2003, dated 2009)
Where a name gives a salt, the structure may show the parent alone.

test: MIC of test compounds against various organisms; type: cell-based; conditions: not given
Method: The MIC (μg/ml) of test compounds against various organisms was determined including:
S. epidermidis CL7, S. aureus WCUH29, S. pneumoniae 1629, S. pyogenes CN10, H. influenzae ATCC 49247, E. faecalis 2, M. catarrhalis Ravasio, E. coli 7623.

| Compound | MIC |
| --- | --- |
| O=C1CSc2ccc(CN[C@H]3CC[C@H](C(=O)Nc4ccnc5ccccc45)CC3)nc2N1 [Example 3, trans-4-[(3-Oxo-3,4-dihydro-2H-pyrido[3,2-b][1,4]thiazin-6-ylmethyl)-amino]-cyclohexanecarboxylic acid quinolin-4-ylamide dihydrochloride] | ≤ 8 µg/mL |

same assay, conditions: versus all these organisms (panel of 8 strains); read-out: MIC

| MIC | Compound |
| --- | --- |
| ≤ 8 µg/mL | O=C1CSc2ccc(CN[C@H]3CC[C@](O)(C(=O)Nc4ccnc5ccsc45)CC3)nc2N1 [Example 1, 1 -Hydroxy-t-4-[(3-oxo-3,4-dihydro-2H-pyrido[3,2-b][1 ,4]thiazin-6-ylmethyl) -amino]-r-cyclohexanecarboxylic acid thieno[3,2-b]pyridin-7-ylamide dihydrochioride] |
| ≤ 2 µg/mL | COc1ccc2cccc(NC(=O)[C@]3(O)CC[C@@H](NCc4ccc5c(n4)NC(=O)CS5)CC3)c2n1 [Example 5, 1-Hydroxy-t-4-[(3-oxo-3,4-dihydro-2H-pyrido[3,2-b][1,4]thiazin-6-ylmethyl)-amino]-r-cyclohexanecarboxylic acid (2-methoxy-quinolin-8-yl)-amide] |
| ≤ 8 µg/mL | COc1ccc2cccc(NC(=O)[C@]3(O)CC[C@@H](NCc4ccc5c(n4)NCCS5)CC3)c2n1 [Example 6, 4-[(3,4-Dihydro-2H-pyrido[3,2-b][1,4]thiazin-6-ylmethyl)-amino]-1-hydroxy-cyclohexanecarboxylic acid (2-methoxy-quinolin-8-yl)-amide] |
| ≤ 2 µg/mL | COc1ccc2cccc(CC[C@]3(O)CC[C@@H](NCc4ccc5c(n4)NC(=O)CO5)CC3)c2n1 [Example 7, 6-({4-Hydroxy-4-[2-(2-methoxy-quinolin-8-yl)-ethyl]-cyclohexylamino}-methyl)-4H-pyrido[3,2-b][1,4]oxazin-3-one] |
| ≤ 2 µg/mL | COc1ccc2cccc(CCC3(O)CCC(NCc4ccc5c(n4)NC(=O)CS5)CC3)c2n1 (centres unmarked) [Example 8, 6-({4-Hydroxy-4-[2-(2-methoxy-quinolin-8-yl)-ethyl]-cyclohexylamino}-methyl)-4H-pyrido[3,2-b][1,4]thiazin-3-one] |
| ≤ 2 µg/mL | N#Cc1ccc2cccc(NC(=O)[C@]3(O)CC[C@@H](NCc4ccc5c(n4)NC(=O)CS5)CC3)c2n1 [Example 10, 1-Hydroxy-t-4-[(3-oxo-3,4-dihydro-2H-pyrido[3,2-b][1,4]thiazin-6-ylmethyl)-amino]-r-cyclohexanecarboxylic acid (2-cyano-quinolin-8-yl)-amide dihydrochloride] |
| ≤ 2 µg/mL | N#Cc1ccc2cccc(NC(=O)[C@]3(O)CC[C@@H](NCc4ccc5c(n4)NC(=O)CO5)CC3)c2n1 [Example 11, 1-Hydroxy-t-4-[(3-oxo-3,4-dihydro-2H-pyrido[3,2-b][1,4]oxazin-6-ylmethyl)-amino]-r-cyclohexanecarboxylic acid (2-cyano-quinolin-8-yl)-amide hydrochloride] |
| ≤ 2 µg/mL | COc1ccc2cccc(NC(=O)[C@]3(O)CC[C@@H](NCc4ccc5c(n4)NC(=O)CO5)CC3)c2n1 [Example 17, 1-Hydroxy-t-4-[(3-oxo-3,4-dihydro-2H-pyrido[3,2-b][1,4]oxazin-6 ylmethyl)-amino]-r-cyclohexanecarboxylic acid (2-methoxy-quinolin-8-yl)-amide] |
| ≤ 2 µg/mL | Cc1ccc2cccc(NC(=O)[C@]3(O)CC[C@@H](NCc4ccc5c(n4)NC(=O)CO5)CC3)c2n1 [Example 18, 1-Hydroxy-t-4-[(3-oxo-3,4-dihydro-2H-pyrido[3,2-b][1,4]oxazin-6-ylmethyl)-amino]-r-cyclohexanecarboxylic acid (2-methyl-quinolin-8-yl)-amide dihydrochloride] |
| ≤ 2 µg/mL | Cc1ccc2cccc(NC(=O)[C@]3(O)CC[C@@H](NCc4ccc5c(n4)NC(=O)CS5)CC3)c2n1 [Example 19, 1-Hydroxy-t-4-[(3-oxo-3,4-dihydro-2H-pyrido[3,2-b][1,4]thiazin-6-ylmethyl)-amino]-r-cyclohexanecarboxylic acid (2-methyl-quinolin-8-yl)-amide dihydrochloride] |
| ≤ 2 µg/mL | COc1ccc2cccc(CC[C@]3(O)CC[C@@H](NCc4cnc5c(c4)NC(=O)CS5)CC3)c2n1 [Example 21, 7-({r-4-Hydroxy-4-[2-(2-methoxy-quinolin-8-yl)-ethyl]-c-cyclohexylamino}-methyl)-1H-pyrido[2,3-b][1,4]thiazin-2-one] |
| ≤ 2 µg/mL | Cc1ccc2cccc(NC(=O)[C@]3(O)CC[C@@H](NCc4cc5c(cn4)OCC(=O)N5)CC3)c2n1 [Example 22, 1-Hydroxy-t-4-[(2-oxo-2,3-dihydro-1H-pyrido[3,4-b][1,4]oxazin-7-ylmethyl)-amino]-r-cyclohexanecarboxylic acid (2-methyl-quinolin-8-yl)-amide dihydrochloride] |
| ≤ 8 µg/mL | COc1ccc2cccc(NC(=O)[C@]3(O)CC[C@@H](NCc4nc5c(cc4F)SCC(=O)N5)CC3)c2n1 [Example 23, t-4-[(7-Fluoro-3-oxo-3,4-dihydro-2H-pyrido[3,2-b][1,4]thiazin-6-ylmethyl)-amino]-1-hydroxy-r-cyclohexanecarboxylic acid (2-methoxy-quinolin-8-yl)-amide dihydrochloride] |
| ≤ 2 µg/mL | Cc1cnc2cccc(NC(=O)[C@]3(O)CC[C@@H](NCc4ccc5c(n4)NC(=O)CS5)CC3)c2n1 [Example 25, 1-Hydroxy-t-4-[(3-oxo-3,4-dihydro-2H-pyrido[3,2-b][1,4]thiazin-6-ylmethyl)-amino]-r-cyclohexanecarboxylic acid (3-methyl-quinoxalin-5-yl)-amide dihydrochloride] |
| ≤ 2 µg/mL | Cn1ccc2cccc(NC(=O)[C@]3(O)CC[C@@H](NCc4ccc5c(n4)NC(=O)CS5)CC3)c2c1=O [Example 26, 1-Hydroxy-t-4-[(3-oxo-3,4-dihydro-2H-pyrido[3,2-b][1,4]thiazin-6-ylmethyl)-amino]-r-cyclohexanecarboxylic acid (2-methyl-1-oxo-1,2-dihydro-isoquinolin-8-yl)-amide hydrochloride] |
| ≤ 8 µg/mL | COc1nccc2cccc(NC(=O)[C@]3(O)CC[C@@H](NCc4ccc5c(n4)NC(=O)CS5)CC3)c12 [Example 27, 1-Hydroxy-t-4-[(3-oxo-3,4-dihydro-2H-pyrido[3,2-b][1,4]thiazin-6-ylmethyl)-amino]-r-cyclohexanecarboxylic acid (1-methoxy-isoquinolin-8-yl)-amide hydrochloride] |

| Compound | MIC |
| --- | --- |
| N#Cc1ccc2cccc(NC(=O)[C@@H]3CC[C@@H](NCc4ccc5c(n4)NC(=O)CO5)[C@@H](O)C3)c2n1 [Example 9, (1R,3S,4R)-3-Hydroxy-4-[(3-oxo-3,4-dihydro-2H-pyrido[3,2-b][1,4]oxazin-6-ylmethyl)-amino]-cyclohexanecarboxylic acid (2-cyano-quinolin-8-yl)-amide hydrochloride] | ≤ 2 µg/mL |
| N#Cc1ccc2cccc(NC(=O)[C@H]3CC[C@H](NCc4ccc5c(n4)NC(=O)CS5)[C@H](O)C3)c2n1 [Example 12, (1 S,3R,4S)-3-Hydroxy-4-[(3-oxo-3,4-dihydro-2H-pyrido[3,2-b][1,4]thiazin-6-ylmethyl)-amino]-cyclohexanecarboxylic acid (2-cyano-quinolin-8-yl)-amide hydrochloride] | ≤ 2 µg/mL |
| N#Cc1ccc2cccc(NC(=O)[C@H]3CC[C@H](NCc4ccc5c(n4)NC(=O)CO5)[C@H](O)C3)c2n1 [Example 13, (1S,3R,4S)-3-Hydroxy-4-[(3-oxo-3,4-dihydro-2H-pyrido[3,2-b][1,4]oxazin-6-ylmethyl)-amino]-cyclohexanecarboxylic acid (2-cyano-quinolin-8-yl)-amide hydrochloride] | ≤ 2 µg/mL |
| N#Cc1ccc2cccc(NC(=O)[C@@H]3CC[C@@H](NCc4ccc5c(n4)NC(=O)CS5)[C@H](O)C3)c2n1 [Example 14, (1R,3R,4R)-3-Hydroxy-4-[(3-oxo-3,4-dihydro-2H-pyrido[3,2-b][1,4]thiazin-6-ylmethyl)-amino]-cyclohexanecarboxylic acid (2-cyano-quinolin-8-yl)-amide hydrochloride] | ≤ 2 µg/mL |
| N#Cc1ccc2cccc(NC(=O)[C@@H]3CC[C@@H](NCc4ccc5c(n4)NC(=O)CS5)[C@@H](O)C3)c2n1 [Example 16, (1R,3S,4R)-3-Hydroxy-4-[(3-oxo-3,4-dihydro-2H-pyrido[3,2-b][1,4]thiazin-6-ylmethyl)-amino]-cyclohexanecarboxylic acid (2-cyano-quinolin-8-yl)-amide hydrochloride] | ≤ 2 µg/mL |
| COc1ccc2cccc(NC(=O)[C@@H]3CC[C@@H](NCc4ccc5c(n4)NC(=O)CS5)[C@H](O)C3)c2n1 [Example 20, (1R,3R,4R)-3-Hydroxy-4-[(3-oxo-3,4-dihydro-2H-pyrido[3,2-b)[1,4]thiazin-6-ylmethyl)-amino]-cyclohexanecarboxylic acid (2-methoxy-quinolin-8-yl)-amide dihydrochloride] | ≤ 2 µg/mL |

same assay, conditions: versus at least one of these organisms (panel of 8 strains); read-out: MIC

| MIC | Compound |
| --- | --- |
| ≤ 16 µg/mL | O=C1CSc2ccc(CN[C@H]3CC[C@](O)(C(=O)Nc4ccnc5c4OCCO5)CC3)nc2N1 [Example 2, 1-Hydroxy-t-4-[(3-oxo-3,4-dihydro-2H-pyrido[3,2-b][1,4]thiazin-6-ylmethyl)-amino]-r-cyclohexanecarboxylic acid (2,3-dibydro-[1,4]dioxino[2,3-b]pyridin-8-yl)-amide dihydrochloride] |
| ≤ 16 µg/mL | O=C1CSc2ccc(CN[C@H]3CC[C@H](C(=O)Nc4cccc5cnccc45)CC3)cc2N1 [Example 4, trans-4-[(3-Oxo-3,4-dihydro-2H-benzo[1,4]thiazin-6-ylmethyl)-amino]-cyclohexanecarboxylic acid isoquinolin-5-ylamide] |

same assay, conditions: versus some of these organisms (panel of 8 strains); read-out: MIC

| MIC | Compound |
| --- | --- |
| ≤ 2 µg/mL | COc1ccc2cccc(NC(=O)[C@]3(O)CC[C@@H](NCc4nc5c(cc4Cl)SCC(=O)N5)CC3)c2n1 [Example 24, t-4-[(7-Chloro-3-oxo-3,4-dihydro-2H-pyrido[3,2-b][1,4]thiazin-6-ylmethyl)-amino]-1-hydroxy-r-cyclohexanecarboxylic acid (2-methoxy-quinolin-8-yl)-amide dihydrochloride] |
